According to patent publication US20030017146A1, “Arginine decomposing enzyme therapeutic composition” (priority 1996, published 2003):
Entries after “also recorded” stand apart in the source; their conditions may differ.

Legend:
[1] = tested on: HeLa Cells (human cervical carcinoma); assay: Arginine deprivation of HeLa cells in vitro, survival and recovery (cloning studies); assay type: cell-based
Procedure: Our in vitro work (D. N. Wheatly: Personal communication) with HeLa Cells (human cervical carcinoma) and early passages of human fibroblasts has established limits of survival and recovery after different items of arginine deprivation. […] By 96 hours of deprivation all HeLa cells were dead. In contrast, healthy fibroblasts could be recovered after even 10 days of deprivation.
Further work established that arginine concentration of 1 micro mole per liter had essentially the same effects as total deprivation. At 40 mircomolar, HeLa cycle was already disturbed, and killing of the cells started below 10 mircomolar. Thus our target “killing zone” for HeLa cells is 1 to 10 micromolar concentration of arginine during three to four days of deprivation.

thrombocytes = assay: Iloprost infusion against loss of thrombocytes limiting duration of dialysis sessions; assay type: in vivo, dogs; settings: dog, infusion at 0.5 to 1.0 ng/kg/hr, last two sessions
Procedure: No systemic problems were seen that would indicate serious threats caused by the lack of arginine. As discussed earlier, loss of thrombocytes was the main factor limiting duration of the sessions. In the last two sessions on the last dog we used yet another infusion pump to deliver iloprost (ILOMEDIN), Schering), a stable analog of prostacyclin (at 0.5 to 1.0 ng/kg/hr). […] By deployment of the approaches described earlier (oxygen supply) this problem will certainly be resolved.

[2] = cited from earlier work
[3] = Continuous hemodialysis removal of arginine with insulin/glucose clamp in healthy dogs; assay type: in vivo; settings: dog plasma, direct infusion of insulin and glucose with dialysis, blood flow 300 to 400 ml/min, single filter
Description: We have thus devised an approach combining our technique of extracorporeal blood treatment for removal of arginine (or any number of selected amino acids) with a pharmacological intervention employing an insulin/glucose clamp. As mentioned earlier, insulin is both an inhibitor of muscle protein breakdown (of both lysosomal and proteasomal pathways) and a promoter of protein synthesis. Since the net release of amino acids depends on both of these cellular activities, insulin is an excellent choice.
The upper two curves (dashed lines) are from the two sessions without insulin. Not shown are the concentrations of other amino acids, which could be maintained close to their pre-set levels (determined by their concentrations in the dialyzing fluid).
A detailed description of the experiment performed on one (the first) of the last three dogs is as follows. […]
Concentrations of amino acids in the blood plasma were measured on an amino acid analyzer (Pharmacia, Biochrom 20) using standard procedures of sample preparation. Using a short column and a truncated buffer program, several amino acids (phenylalanine, histidine, 3-methyl-histidine, tryptophan, lysine, and arginine) could be measured in about 30 minutes of analyzer running time. […]

[4] = pH 7.4; cited from earlier work
[5] = cited from earlier work; remark: listed apart in the source

## N=C(N)NCCC[C@H](N)C(=O)O [arginine]
[1]
  arginine concentration at which the cell cycle was already disturbed: 40 mircomolar
  arginine concentration below which killing of the cells started: below 10 mircomolar
  arginine concentration with essentially the same effects as total deprivation: 1 micro mole per liter

## CC#CCC(C)[C@H](O)/C=C/[C@@H]1[C@H]2C/C(=C/CCCC(=O)O)C[C@H]2C[C@H]1O (stereo partly shown) [iloprost]
thrombocytes
  prolongation of the sessions: slight prolongation only

## Cc1ncc(COP(=O)(O)O)c(C=O)c1O [pyridoxal 5′-phosphate]
[2]; in circulation
  half life: about 15 minutes

## Cc1ncc(CO)c(CO)c1O.Cl [pyrodoxine hydrochloride, reference compound]
[2]; human plasma, oral supplement of 100 mg/day, normal about 60 nM
  plasma concentration of pyridoxal 5'-phosphate reached: 450 nM

## insulin
[3]
  arginine level reached: 1.5 µM

B1: dADC: inducible (biodegradative) arginine decarboxylase of E. coli, molecular weight 850,000, induced by low pH (protein, UniProt P28629 1-755, looked up)
Biodegradative arginine …: MKVLIVESEFLHQDTWVGNAVERLADALSQQNVTVIKSTSFDDGFAILSSNEAIDCLMFSYQMEHPDEHQNVRQLIGKLHERQQNVPVFLLGDREKALAAMDRDLLELVDEFAWILEDTADFIAGRAVAAMTRYRQQLLPPLFSALMKYSDIHEYSWAAPGHQGGVGFTKTPAGRFYHDYYGENLFRTDMGIERTSLGSLLDHTGAFGESEKYAARVFGADRSWSVVVGTSGSNRTIMQACMTDNDVVVVDRNCHKSIEQGLMLTGAKPVYMVPSRNRYGIIGPIYPQEMQPETLQKKISESPLTKDKAGQKPSYCVVTNCTYDGVCYNAKEAQDLLEKTSDRLHFDEAWYGYARFNPIYADHYAMRGEPGDHNGPTVFATHSTHKLLNALSQASYIHVREGRGAINFSRFNQAYMMHATTSPLYAICASNDVAVSMMDGNSGLSLTQEVIDEAVDFRQAMARLYKEFTADGSWFFKPWNKEVVTDPQTGKTYDFADAPTKLLTTVQDCWVMHPGESWHGFKDIPDNWSMLDPIKVSILAPGMGEDGELEETGVPAALVTAWLGRHGIVPTRTTDFQIMFLFSMGVTRGKWGTLVNTLCSFKRHYDANTPLAQVMPELVEQYPDTYANMGIHDLGDTMFAWLKENNPGARLNEAYSGLPVAEVTPREAYNAIVDNNVELVSIENLPGRIAANSVIPYPPGIPMLLSGENFGDKNSPQVSYLRSLQSWDHHFPGFEHETEGTEIIDGIYHVMCVKA
[4]
  catalytic activity at physiological pH: vanishes; also recorded: near total loss of activity

B2: bADC: biosynthetic arginine decarboxylase of E. coli, tetramer of 296,000 molecular weight requiring pyridoxal 5'-phosphate and magnesium ion (protein, UniProt P21170 1-658, looked up)
Biosynthetic arginine …: MSDDMSMGLPSSAGEHGVLRSMQEVAMSSQEASKMLRTYNIAWWGNNYYDVNELGHISVCPDPDVPEARVDLAQLVKTREAQGQRLPALFCFPQILQHRLRSINAAFKRARESYGYNGDYFLVYPIKVNQHRRVIESLIHSGEPLGLEAGSKAELMAVLAHAGMTRSVIVCNGYKDREYIRLALIGEKMGHKVYLVIEKMSEIAIVLDEAERLNVVPRLGVRARLASQGSGKWQSSGGEKSKFGLAATQVLQLVETLREAGRLDSLQLLHFHLGSQMANIRDIATGVRESARFYVELHKLGVNIQCFDVGGGLGVDYEGTRSQSDCSVNYGLNEYANNIIWAIGDACEENGLPHPTVITESGRAVTAHHTVLVSNIIGVERNEYTVPTAPAEDAPRALQSMWETWQEMHEPGTRRSLREWLHDSQMDLHDIHIGYSSGIFSLQERAWAEQLYLSMCHEVQKQLDPQNRAHRPIIDELQERMADKMYVNFSLFQSMPDAWGIDQLFPVLPLEGLDQVPERRAVLLDITCDSDGAIDHYIDGDGIATTMPMPEYDPENPPMLGFFMVGAYQEILGNMHNLFGDTEAVDVFVFPDGSVEVELSDEGDTVADMLQYVQLDPKTLLTQFRDQVKKTDLDAELQQQFLEEFEAGLYGYTYLEDE
[5]; absolute requirement for magnesium ion
  pH of optimal activity: ~8
[5]; cofactor
  Michaelis constant for pyridoxal 5'-phosphate: 0.6 µM
[5]; enzyme purified 1,000 fold
  specific activity: 16.4 units/mg
[5]; sigmoidal magnesium saturation curve
  magnesium saturation S0.5: 1.3 mM
[5]; substrate
  Michaelis constant for arginine: 30 µM
